Where a SMILES comes first, the peptide text is derived from it. The star is where a group is joined. Propyl(2R-PamO,3-PamO) = CCCCCCCCCCCCCCCC(=O)OC[C@H](C*)OC(=O)CCCCCCCCCCCCCCC; Palmitoyl = CCCCCCCCCCCCCCCC(=O)*
Assays:
RAW 264.7 γNO(−) cells = assay: TNF-α and IFN-β assays in macrophages (Example 6); format: cell-based, mouse; conditions: 5.5 h
Protocol: To examine cytokine production, mouse macrophages (RAW γNO(−) cells) were exposed over a wide range of concentrations to compounds 21-24, E. coli 055:B5 LPS and prototypic E. coli bisphosphoryl lipid A (Zhang, J. Am. Chem. Soc. 2007, 129, 5200-5216). After 5.5 h, the supernatants were harvested and examined for mouse TNF-α and IFN-β using commercial or in-house developed capture ELISAs, respectively (FIG. 6). […] The reduced efficacy of compounds 21 and 23 is probably a beneficial property, because LPS can over-activate the innate immune system leading to symptoms of septic shock.
RAW 264.7 γNO(−) cells were plated on the day of the exposure assay as 2×10^5 cells/well in 96-well plates (Nunc) and incubated with different stimuli for 5.5 h in the presence or absence of polymyxin B. Culture supernatants were collected and stored frozen (−80° C.) until assayed for cytokine production. Concentrations of TNF-α were determined using the TNF-α DuoSet ELISA Development kit from R&D Systems. Concentrations of IFN-β were determined as follows. ELISA MaxiSorp plates were coated with rabbit polyclonal antibody against mouse IFN-β (PBL Biomedical Laboratories). IFN-β in standards and samples was allowed to bind to the immobilized antibody. Rat anti-mouse IFN-β antibody (USBiological) was then added, producing an antibody-antigen-antibody “sandwich”. Next, horseradish peroxidase (HRP) conjugated goat anti-rat IgG (H+L) antibody (Pierce) and a chromogenic substrate for HRP 3,3′,5,5′-tetramethylbenzidine (TMB; Pierce) were added. After the reaction was stopped, the absorbance was measured at 450 nm with wavelength correction set to 540 nm. Concentration-response data were analyzed using nonlinear least-squares curve fitting in Prism (GraphPad Software, Inc.). […] The Hill slope was set at 1 to be able to compare the EC50 values of the different inducers. All cytokine values are presented as the means±SD of triplicate measurements, with each experiment being repeated three times.

[1] = test system: GSTPVS(β-O-GlcNAc)SANM (BSA-MI-66 conjugate); parameters: species or system BALB/c mice; conditions: mouse, in vivo
RAW γNO(−) cells = assay: TNF-α and IFN-β production by mouse macrophages (Example 3); format: cell-based; conditions: best-fit values (Prism)
Protocol: After 5 hours, the supernatants were harvested and examined for mouse TNF-α and IFN-β using commercial or in-house developed capture ELISA assays, respectively.

Row | Compound | IFN-β secretion (RAW 264.7 γNO(−) cells) | TNF-α secretion (RAW 264.7 γNO(−) cells) | IgG1 titer (anti-GSTPVS(β-O-GlcNAc)SANM) [1] | IgG2a titer (anti-GSTPVS(β-O-GlcNAc)SANM) [1] | IgG2b titer (anti-GSTPVS(β-O-GlcNAc)SANM) [1] | IgG3 titer (anti-GSTPVS(β-O-GlcNAc)SANM) [1] | IgG total titer (anti-GSTPVS(β-O-GlcNAc)SANM) [1] | IgM titer (anti-GSTPVS(β-O-GlcNAc)SANM) [1] | Emax for TNF-α production (RAW γNO(−) cells) [pg/mL]
1 | monophosphoryl lipid A [Compound 24] | stimulated the cells to produce TNF-α and INF-β | stimulated the cells to produce TNF-α and INF-β | – | – | – | – | – | – | –
2 | Pam3CysSK4G-C-KLFAVWKITYKDT-G-GSTPVS(β-S-GluNAc)SANM [Compound 53] | – | – | 111,800 | 55,600 | 21,300 | 111,700 | 151,600 | 21,900 | –
3 | CCCCCCCCCCCCCCCC(=O)N[C@@H](CSC[C@@H](COC(=O)CCCCCCCCCCCCCCC)OC(=O)CCCCCCCCCCCCCCC)C(=O)N[C@@H](CO)C(=O)N[C@@H](CCCCN)C(=O)N[C@@H](CCCCN)C(=O)N[C@@H](CCCCN)C(=O)N[C@@H](CCCCN)C(=O)O [Pam3CysSK4, N-palmitoyl-S—[(R)-2,3-bis(palmitoyloxy)-propyl]-(R)-cysteinyl-(S)-seryl-(S)-lysine-(S)-lysine-(S)-lysine-(S)-lysyne] (Palmitoyl-C(Propyl(2R-PamO,3-PamO))SKKKK-OH) | none of the compounds induced the production of INF-β | induced secretion of TNF-α with similar efficacies and potencies | – | – | – | – | – | – | 932
4 | Pam3CysSK4G-C-KLFAVWKITYKDT-G-GSTPVS(β-O-GluNAc)SANM [Compound 52] | – | – | 61,400 | 33,200 | 12,500 | 69,400 | 76,500 | 81,900 | –
5 | CCCCCCCCCCCCCCCC(=O)OC[C@H](CSC[C@H](N)C(=O)N[C@@H](CO)C(=O)N[C@@H](CCCCN)C(=O)N[C@@H](CCCCN)C(=O)N[C@@H](CCCCN)C(=O)N[C@@H](CCCCN)C(=O)O)OC(=O)CCCCCCCCCCCCCCC [Pam2CysSK4, S—[(R)-2,3-bis(palmitoyloxy)-propyl]-(R)-cysteinyl-(S)-seryl-(S)-lysine-(S)-lysine-(S)-lysine-(S)-lysyne] (H-C(Propyl(2R-PamO,3-PamO))SKKKK-OH; C-terminus assumed) | – | – | – | – | – | – | – | – | 631

Source: US20150299290A1, “IMMUNOGENIC VACCINE” (University of Georgia Research Foundation, Inc., priority 2010, published 2015)
